# Test results taken from PubChem BioAssay (NCI).
# Values joined by “and” are separate entries in the source; they are usually repeats but may differ in a detail not shown here. Identical values can stand only once.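 Five concentrations, 48 hours, 96-well plates. At the GI50, growth is halved. TGI: total growth inhibition.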
# Legend:
# Test in all cases: NCI-60 cell line screen, 48 h
# RXF 393 renal = system: RXF 393 renal
# HL-60(TB) leukemia = system: HL-60(TB) leukemia
# HCT-116 colon = system: HCT-116 colon
# SW-620 colon = system: SW-620 colon
# UACC-257 melanoma = system: UACC-257 melanoma
# HCT-15 colon = system: HCT-15 colon
# OVCAR-4 ovarian = system: OVCAR-4 ovarian
# K-562 leukemia = system: K-562 leukemia
# SN12C renal = system: SN12C renal
# DU-145 prostate = system: DU-145 prostate
SMILES,TGI (RXF 393 renal),TGI (HL-60(TB) leukemia),TGI (HCT-116 colon),TGI (SW-620 colon),TGI (UACC-257 melanoma),TGI (HCT-15 colon),TGI (OVCAR-4 ovarian),TGI (K-562 leukemia),TGI (SN12C renal),TGI (DU-145 prostate),GI50 (RXF 393 renal),GI50 (HL-60(TB) leukemia),GI50 (HCT-116 colon),GI50 (SW-620 colon),GI50 (UACC-257 melanoma),GI50 (HCT-15 colon),GI50 (OVCAR-4 ovarian),GI50 (SN12C renal),GI50 (DU-145 prostate),GI50 (K-562 leukemia)
CC(=O)Nc1ccc(Cc2ccc3[nH]c(=O)cc(C)c3c2)cc1,> 100 µM,> 100 µM,> 100 µM,> 100 µM,> 100 µM,> 100 µM,> 100 µM,> 100 µM,> 100 µM,> 100 µM,–,–,–,–,–,–,–,–,–,–
COC(=O)[C@H](C)[C@@H]1CC[C@](C)(CCC2=C(C)CCCC2(C)C)OO1,> 25 µM,> 25 µM,> 25 µM,> 25 µM,> 25 µM,> 25 µM,> 25 µM,> 25 µM,> 25 µM,> 25 µM,–,–,–,–,–,–,–,–,–,–
Cc1cc(Cl)ccc1Nc1nc2c(s1)C(=O)c1ccccc1C2=O,16.8 µM,2.68 µM,5.25 µM,4.01 µM,5.64 µM,3.68 µM,9.41 µM,> 23.3 µM,3.33 µM,3.04 µM,–,–,–,–,–,–,–,–,–,–
C=C(C)C1CCC2(C(=O)O)CCC3(C)C(CCC4C5(C)CCC(O)C(C)(C)C5CCC43C)C12 (stereo not drawn),5.99 µM,10.5 µM,17.5 µM,51.5 µM,21.8 µM,23.5 µM,14.7 µM,27.3 µM,26.1 µM,27.1 µM,–,–,–,–,–,–,–,–,–,–
Cc1nc2cc(Nc3nc(Nc4ccc(F)cc4)nc(N4CCCC4)n3)ccc2n1Cc1ccccc1,3.09 µM,5.3 µM,3.09 µM,3.14 µM,5.88 µM,3.99 µM,4 µM,–,3.45 µM,3.35 µM,1.55 µM,2.58 µM,1.66 µM,1.66 µM,2.32 µM,1.88 µM,1.62 µM,1.84 µM,1.87 µM,–
Clc1ccc(Nc2ncnc3c2sc2ncccc23)c(Cl)c1,> 100 µM,> 100 µM,> 100 µM,> 100 µM,> 100 µM,> 100 µM,> 100 µM,> 100 µM,> 100 µM,> 100 µM,0.0492 µM,< 0.0137 µM,< 0.01 µM,0.0617 µM,0.0557 µM,0.052 µM,> 100 µM,0.126 µM,0.0276 µM,0.27 µM
Oc1[nH]c2ccccc2c1/C=c1/ccc2c(c1)N=C(c1cc(F)cc(F)c1)N=2,25 µM,40.5 µM,8.06 µM,15.8 µM,26.4 µM,14.1 µM,13.5 µM,13.8 µM,30 µM,22.2 µM,8.2 µM,12.6 µM,2.43 µM,3.55 µM,10.6 µM,3.52 µM,3.33 µM,11.4 µM,10.2 µM,3.28 µM
NNc1ncnc2cccc(Cl)c12,> 100 µM,> 100 µM,> 100 µM,> 100 µM,> 100 µM,> 100 µM,> 100 µM,> 100 µM,> 100 µM,> 100 µM,–,–,–,–,–,–,–,–,–,–
COc1ccc2c(c1)CC1N(C)CCC13CCCCC23 (stereo not drawn),> 100 µM,> 100 µM,> 100 µM,–,> 100 µM,> 100 µM,> 100 µM,> 100 µM,> 100 µM,> 100 µM,–,–,–,–,–,–,–,–,–,–
CCN(CC)CCNC(=O)C(Cl)=C1C(Cl)=C(Cl)C(Cl)=C1Cl,15.9 µM,7.06 µM,4.4 µM,12.5 µM,11.7 µM,12.7 µM,15.6 µM,> 100 µM,49.8 µM,10.8 µM,3.76 µM,3.35 µM,1.78 µM,3.25 µM,2.49 µM,2.78 µM,4.17 µM,4.03 µM,2.78 µM,3.56 µM
COc1ccc(Nc2ncccc2C(=O)NCc2cn(Cc3cccc(Oc4ccccc4)c3)nn2)c(OC)c1,> 74.2 µM,> 22.7 µM,> 100 µM,> 100 µM,> 100 µM,> 100 µM,> 100 µM,> 100 µM,> 100 µM,> 81.5 µM,1.91 µM,2.55 µM,1.66 µM,2.35 µM,13.4 µM,1.68 µM,5.27 µM,3.51 µM,3.52 µM,1.58 µM
COc1cccc(/C=C2\CCc3ccccc3C2=O)c1,32.4 µM,67.4 µM,25.3 µM,13.4 µM,28.9 µM,49.4 µM,54.5 µM,57.1 µM,40.2 µM,18.7 µM,16.1 µM,21.9 µM,9.26 µM,3.7 µM,13.4 µM,10.5 µM,13.7 µM,15.8 µM,6.07 µM,3.29 µM
O=C(NC(Cc1ccccc1)C(=O)CCl)OCc1ccccc1 (stereo not drawn),14.2 µM,43.1 µM and 13.4 µM,3.32 µM and 26.5 µM,5.23 µM and 15.8 µM,26.7 µM and 26.2 µM,8.56 µM and 17.8 µM,13.5 µM,> 100 µM and 40.1 µM,17.7 µM and 20.3 µM,22.9 µM,3.62 µM,14.3 µM,1.65 µM,1.91 µM,–,2.32 µM,2.04 µM,–,10.9 µM,2.65 µM
COc1cc2oc(-c3ccc(O)cc3)cc(=O)c2c(OC)c1O,> 100 µM,> 100 µM,> 100 µM,> 100 µM,> 100 µM,> 100 µM,> 100 µM,> 100 µM,> 100 µM,> 100 µM,–,–,–,–,–,–,–,–,–,–
CCN(CC)CC(O)c1cc(-c2ccc(Cl)cc2)nc2cc(Cl)ccc12 (stereo not drawn),7.32 µM,3.74 µM,3.15 µM,3.33 µM,3.61 µM,9.26 µM,10.6 µM,3.55 µM,12.7 µM,5.04 µM,2.75 µM,2.02 µM,1.65 µM,1.73 µM,1.86 µM,3.05 µM,3.3 µM,2.96 µM,2.27 µM,1.75 µM
CCOC(=O)Nc1cc(-c2ccc(C)c(NS(C)(=O)=O)c2)nn2c(C)nnc12,12.9 µM,2.71 µM,15.3 µM,30.9 µM,> 100 µM,10.3 µM,10.9 µM,> 100 µM,58.5 µM,> 100 µM,2.59 µM,0.334 µM,1.9 µM,2.42 µM,1.11 µM,1.26 µM,0.735 µM,2.06 µM,5.02 µM,1.73 µM
O=C(O)c1c[nH]c2c(ccc3[nH]cc(C(=O)O)c(=O)c32)c1=O,> 100 µM,> 100 µM,> 100 µM,> 100 µM,> 100 µM,> 100 µM,> 100 µM,> 100 µM,> 100 µM,> 100 µM,–,–,–,–,–,–,–,–,–,–
Nc1nc(Cl)nc2c1ncn2C1OC(CO)C(O)C1O (stereo not drawn),> 100 µM,> 93.6 µM,> 100 µM,> 100 µM,> 100 µM,> 100 µM,> 100 µM,> 100 µM,> 100 µM,> 100 µM,> 100 µM,0.374 µM,4.23 µM,36.1 µM,> 100 µM,7.57 µM,> 100 µM,0.899 µM,6.76 µM,> 85.3 µM
N/C(=N\C(N)=N\c1nc2ccccc2s1)c1ccnc(Br)c1,27.1 µM,> 100 µM,> 100 µM,> 100 µM,> 100 µM,> 100 µM,> 100 µM,> 100 µM,> 100 µM,> 100 µM,2.81 µM,3.02 µM,3.28 µM,3.91 µM,> 100 µM,3.92 µM,7.83 µM,5.57 µM,15.2 µM,3.46 µM
COc1ccc2c(c1)C(=O)c1c-2c(OCCN2CCCCC2)nc2ccc(OC)cc12,11 µM,6.64 µM,1.64 µM,2.19 µM,6.9 µM,2.63 µM,10.7 µM,2.76 µM,10.1 µM,2.19 µM,1.9 µM,1.08 µM,0.393 µM,0.269 µM,2.07 µM,0.54 µM,1.36 µM,0.429 µM,0.519 µM,0.413 µM
COc1cc(-c2ccc(=O)oc2C#Cc2ccccc2)cc(OC)c1OC,19.9 µM,> 100 µM,> 100 µM,> 100 µM,> 100 µM,> 100 µM,> 100 µM,> 100 µM,> 100 µM,> 100 µM,0.945 µM,8.56 µM,1.66 µM,13.3 µM,56.7 µM,13.8 µM,> 100 µM,15.9 µM,28.3 µM,86.1 µM
ClCc1ccc(-c2ccc(Cn3cnc4c(Cl)ncnc43)cc2)cc1,4.51 µM,5.59 µM,2.79 µM,6.63 µM,24.7 µM,4.47 µM,4.28 µM,> 100 µM,3.69 µM,3.36 µM,1.88 µM,2.18 µM,1.48 µM,2.43 µM,3.76 µM,1.9 µM,1.46 µM,1.64 µM,1.49 µM,2.9 µM
CCCCC1N=CNc2c1ccc1c2[nH]c2ccccc21 (stereo not drawn),2.16 µM,3.68 µM,3.32 µM,3.55 µM,3.3 µM,4.72 µM,8.15 µM,5.4 µM,7.8 µM,5.72 µM,–,–,–,–,–,–,–,–,–,–
Cn1cc(-c2ccc3nnc(C(F)(F)c4ccc5ncccc5c4)n3n2)cn1,> 86.6 µM,> 100 µM,> 100 µM,> 100 µM,> 100 µM,> 100 µM,> 100 µM,> 100 µM,> 100 µM,> 100 µM,25.9 µM,> 100 µM,61.9 µM,> 95.8 µM,> 100 µM,73 µM,38.5 µM,35.4 µM,53.9 µM,78.1 µM
CCCCCCn1c2c(c3c(O)cccc31)C(=O)c1ccccc1-2,28 µM,63.6 µM,30.9 µM,34.8 µM,32.9 µM,37 µM,53 µM,58.4 µM,32 µM,29.7 µM,12 µM,18.7 µM,17.2 µM,18.2 µM,15.1 µM,18.6 µM,25 µM,17.6 µM,15.7 µM,23.7 µM
O=C1Nc2c(ccc(Cl)c2Cl)/C1=C\c1cc(C(F)(F)F)cc(C(F)(F)F)c1,2.94 µM,2.37 µM,5.07 µM,6.1 µM,13.7 µM,6.07 µM,7.66 µM,5.97 µM,10.9 µM,13.5 µM,1.21 µM,1.13 µM,1.41 µM,1.66 µM,6.62 µM,1.4 µM,1.81 µM,3.59 µM,5.57 µM,1.55 µM
CS(=O)(=O)c1ccc(-c2cnc(NCc3ccco3)n3cnnc23)cc1,> 100 µM,> 100 µM,> 100 µM,> 100 µM,> 100 µM,> 100 µM,> 100 µM,> 100 µM,> 100 µM,> 100 µM,> 100 µM,39.7 µM,> 100 µM,> 100 µM,24.7 µM,> 100 µM,> 100 µM,> 100 µM,> 100 µM,72.6 µM
O=C(c1ccccc1)c1c2n(c3c1cc(O)c1ccccc13)CCN2,27.1 µM,4.47 µM,10.9 µM,14.8 µM,3.4 µM,19.1 µM,2.86 µM,8.2 µM,4.21 µM,27.1 µM,11.1 µM,2.17 µM,3.44 µM,3.47 µM,1.91 µM,6.5 µM,1.53 µM,2 µM,13.2 µM,2.56 µM
CC/C(=C(/CC)c1ccc(O)cc1)c1ccc(O)cc1,21.8 µM,> 100 µM,15.9 µM,14.5 µM,22.7 µM,20 µM,37 µM,–,28.6 µM,22.4 µM,6.72 µM,4.07 µM,4.92 µM,3.88 µM,7.04 µM,4.79 µM,8.06 µM,5.9 µM,10 µM,–
